Data: PubChem BioAssay (NCI)
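Five concentrations, 48 hours, 96-well plates. The concentration for full growth arrest is given as TGI.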

Key:
Assay in all cases: NCI tumour cell line growth inhibition, 48 h
NCI-H226 lung = system: NCI-H226 lung
SF-539 CNS = system: SF-539 CNS
NCI-H460 lung = system: NCI-H460 lung
A549 NSCLC = system: A549 NSCLC
OVCAR-3 ovarian = system: OVCAR-3 ovarian
SK-OV-3 ovarian = system: SK-OV-3 ovarian
UACC-257 melanoma = system: UACC-257 melanoma
SF-295 CNS = system: SF-295 CNS
HCT-116 colon = system: HCT-116 colon
LOX IMVI melanoma = system: LOX IMVI melanoma
XF 498 CNS = system: XF 498 CNS
UO-31 renal = system: UO-31 renal
KM12 colon = system: KM12 colon
SNB-78 CNS = system: SNB-78 CNS
UACC-62 melanoma = system: UACC-62 melanoma
IGROV1 ovarian = system: IGROV1 ovarian
DLD-1 colon = system: DLD-1 colon
HOP-92 NSCLC = system: HOP-92 NSCLC
HCT-15 colon = system: HCT-15 colon
HT29 colon = system: HT29 colon
786-0 renal = system: 786-0 renal
OVCAR-5 ovarian = system: OVCAR-5 ovarian
SNB-75 CNS = system: SNB-75 CNS
NCI-H23 lung = system: NCI-H23 lung
U251 CNS = system: U251 CNS
COLO 205 colon = system: COLO 205 colon
SNB-19 CNS = system: SNB-19 CNS
SK-MEL-28 melanoma = system: SK-MEL-28 melanoma
HCC-2998 colon = system: HCC-2998 colon
ACHN renal = system: ACHN renal
HOP-62 NSCLC = system: HOP-62 NSCLC
A498 renal = system: A498 renal
EKVX NSCLC = system: EKVX NSCLC
KM20L2 colon = system: KM20L2 colon
SW-620 colon = system: SW-620 colon
CCRF-CEM leukemia = system: CCRF-CEM leukemia
MALME-3M melanoma = system: MALME-3M melanoma
K-562 leukemia = system: K-562 leukemia
SN12C renal = system: SN12C renal
M19-MEL melanoma = system: M19-MEL melanoma
SK-MEL-5 melanoma = system: SK-MEL-5 melanoma
DMS 114 small cell lung = system: DMS 114 small cell lung
OVCAR-4 ovarian = system: OVCAR-4 ovarian
SK-MEL-2 melanoma = system: SK-MEL-2 melanoma
NCI-H522 lung = system: NCI-H522 lung
MOLT-4 leukemia = system: MOLT-4 leukemia
SF-268 CNS = system: SF-268 CNS
HOP-18 NSCLC = system: HOP-18 NSCLC
OVCAR-8 ovarian = system: OVCAR-8 ovarian
TK-10 renal = system: TK-10 renal
LXFL 529 NSCLC = system: LXFL 529 NSCLC
M14 melanoma = system: M14 melanoma
RXF 393 renal = system: RXF 393 renal
CAKI-1 renal = system: CAKI-1 renal
SR leukemia = system: SR leukemia
RPMI-8226 leukemia = system: RPMI-8226 leukemia
HL-60(TB) leukemia = system: HL-60(TB) leukemia

Measured: TGI

CC1CCC23COC(=O)C2C(O)CCC3C1(C)CC(O)c1ccoc1 (centres undefined)
> 100 µM: NCI-H226 lung | SF-539 CNS | NCI-H460 lung | A549 NSCLC | OVCAR-3 ovarian | SK-OV-3 ovarian | UACC-257 melanoma | SF-295 CNS | HCT-116 colon | LOX IMVI melanoma | XF 498 CNS | UO-31 renal | KM12 colon | SNB-78 CNS | UACC-62 melanoma | IGROV1 ovarian | DLD-1 colon | HOP-92 NSCLC | HCT-15 colon | HT29 colon | 786-0 renal | OVCAR-5 ovarian | SNB-75 CNS | NCI-H23 lung | U251 CNS | COLO 205 colon | SNB-19 CNS | SK-MEL-28 melanoma | HCC-2998 colon | ACHN renal | HOP-62 NSCLC | A498 renal | EKVX NSCLC | KM20L2 colon | SW-620 colon | CCRF-CEM leukemia | MALME-3M melanoma | K-562 leukemia | SN12C renal | M19-MEL melanoma | SK-MEL-5 melanoma | DMS 114 small cell lung | OVCAR-4 ovarian | SK-MEL-2 melanoma | NCI-H522 lung | MOLT-4 leukemia | SF-268 CNS | HOP-18 NSCLC | OVCAR-8 ovarian | TK-10 renal | LXFL 529 NSCLC | M14 melanoma | RXF 393 renal

COC(=O)C(Cc1nc2ccccc2[nH]c1=O)C(=O)C(=O)Nc1ccc(OC)cc1[N+](=O)[O-] (centres undefined)
> 100 µM: NCI-H226 lung | SF-539 CNS | CAKI-1 renal | NCI-H460 lung | A549 NSCLC | OVCAR-3 ovarian | SR leukemia | SK-OV-3 ovarian | UACC-257 melanoma | SF-295 CNS | HCT-116 colon | LOX IMVI melanoma | XF 498 CNS | RPMI-8226 leukemia | UO-31 renal | KM12 colon | SNB-78 CNS | UACC-62 melanoma | IGROV1 ovarian | HOP-92 NSCLC | HCT-15 colon | HT29 colon | 786-0 renal | OVCAR-5 ovarian | NCI-H23 lung | U251 CNS | COLO 205 colon | SNB-19 CNS | HL-60(TB) leukemia | SK-MEL-28 melanoma | HCC-2998 colon | ACHN renal | HOP-62 NSCLC | EKVX NSCLC | KM20L2 colon | SW-620 colon | CCRF-CEM leukemia | MALME-3M melanoma | K-562 leukemia | SN12C renal | M19-MEL melanoma | SK-MEL-5 melanoma | OVCAR-4 ovarian | SK-MEL-2 melanoma | NCI-H522 lung | MOLT-4 leukemia | SF-268 CNS | OVCAR-8 ovarian | TK-10 renal | LXFL 529 NSCLC | M14 melanoma
